Laboratory results published in patent US4347319A, “Microbiological epoxidation process” (priority 1980, dated 1982).
Like-named read-outs stand apart in the source and are kept apart here.

Legend:
Assay type in all cases: cell-based
[1] = system: Methylobacter bovis (CRL M1Y) NRRL B-11,216; test: Oxidation by washed cell suspensions of methane-grown cells
In short: (§1)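 Washed resting cells from methane-grown cultures oxidise the test substrate, supplied as a 1:1 mix with O2 or as 10 μl liquid, at 30 °C in pH 7.0 phosphate buffer; product formation is followed by GC.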

[2] = system: Methylobacter chroococcum (CRL M6) NRRL B-11,214; test: as above
In short: as §1

[3] = system: Methylobacterium organophilum (CRL 26 R6) NRRL B-11,222; test: as above
In short: as §1

[4] = system: Methylococcus capsulatus (CRL M1) NRRL B-11,219; test: as above
In short: as §1

[5] = system: Methylosinus trichosporium (CRL 15 PM1) NRRL B-11,202; test: as above
In short: as §1

[6] = system: Methylobacter vinelandii (CRL M5Y) NRRL B-11,218; test: as above; conditions: for Oxidative Conversion Rates: methane-grown washed cells, 30° C., methane to methanol, alkene to 1,2-epoxide
In short: as §1

[7] = system: Methylomonas methanica (CRL M4P) NRRL B-11,205; test: as above
In short: as §1

[8] = system: Methylococcus capsulatus (CRL 25 PM13) NRRL B-11,221; test: as above
In short: as §1

[9] = system: Methylomonas albus (CRL M8Y) NRRL B-11,207; test: as above
In short: as §1

[10] = system: Methylobacter bovis (CRL 19 PM5) NRRL B-11,217; test: as above
In short: as §1

[11] = system: Methylobacter chroococcum (CRL 23 PM8) NRRL B-11,215; test: as above
In short: as §1

[12] = system: Methylomonas agile (CRL 22 PM9) NRRL B-11,209; test: as above
In short: as §1

[13] = system: Methylomonas streptobacterium (CRL 17 PM3) NRRL B-11,208; test: as above
In short: as §1

[14] = system: Methylococcus minimus (CRL 24 PM12) NRRL B-11,220; test: as above
In short: as §1

[15] = system: Methylosinus sporium (CRL 16 PM2) NRRL B-11,203; test: as above
In short: as §1

[16] = system: Methylosinus trichosporium OB3b (NRRL B-11,196); test: Oxidation by cell suspensions of methane-grown cells; conditions: methane-grown cell-suspension, pH 7.0
[17] = system: Methylomonas rubrum (CRL 20 PM6) NRRL B-11,211; test: Oxidation by washed cell suspensions of methane-grown cells; conditions: for Oxidative Conversion Rates: methane-grown washed cells, 30° C., methane to methanol, alkene to 1,2-epoxide
In short: as §1

[18] = methane-grown cells, 2-butanol to 2-butanone
[19] = methane-grown washed cells, 30° C., methane to methanol, alkene to 1,2-epoxide
[20] = methane-grown cells, propane to acetone, butane to 2-butanone
[21] = growth substrate Methane, n-alkane to secondary alcohol
[22] = methane-grown cell-suspension, pH 7.0, 3° C.
[23] = methane-grown cell-suspension, pH 7.0, 30° C.
[24] = cells grown on methane at 40° C., 30° C. reaction temperature

CCC(C)O (stereo not shown) [2-Butanol]
Conversion Rate to Ketone, 2 hrs. [1]: 20 μmole/2 mg protein
Conversion Rate to Ketone, 2 hrs. [2]: 1 μmole/2 mg protein
Conversion Rate to Ketone, 20 hrs. [2]: 3 μmole/2 mg protein
Conversion Rate to Ketone, 2 hrs. [3]: 10 μmole/2 mg protein
Conversion Rate to Ketone, 2 hrs. [4]: 18 μmole/2 mg protein
Conversion Rate to Ketone, 20 hrs. [4]: 50 μmole/2 mg protein
Conversion Rate to Ketone, 2 hrs. [5]: 20 μmole/2 mg protein
Conversion Rate to Ketone, 2 hrs. [6, 18]: 2 μmole/2 mg protein
Conversion Rate to Ketone, 20 hrs. [6, 18]: 18 μmole/2 mg protein
Conversion Rate to Ketone, 2 hrs. [7]: 0.06 μmole/2 mg protein
Conversion Rate to Ketone, 20 hrs. [7]: 2 μmole/2 mg protein

C=CC=C [Butadiene]
Oxidative Conversion Rates [1, 19]: 1.27 μmole/hr/mg protein
Oxidative Conversion Rates [2, 19]: 1.5 μmole/hr/mg protein
Oxidative Conversion Rates [3, 19]: 2.8 μmole/hr/mg protein
Oxidative Conversion Rates [4, 19]: 4.4 μmole/hr/mg protein
Oxidative Conversion Rates [8, 19]: 2.5 μmole/hr/mg protein
Oxidative Conversion Rates [9, 19]: 3.0 μmole/hr/mg protein
Oxidative Conversion Rates [10, 19]: 2.3 μmole/hr/mg protein
Oxidative Conversion Rates [11, 19]: 1.8 μmole/hr/mg protein
Oxidative Conversion Rates [5, 19]: 4.2 μmole/hr/mg protein
Oxidative Conversion Rates [12, 19]: 2.0 μmole/hr/mg protein
Oxidative Conversion Rates [13, 19]: 2.6 μmole/hr/mg protein
Oxidative Conversion Rates [7, 19]: 1.0 μmole/hr/mg protein
Oxidative Conversion Rates [14, 19]: 3.0 μmole/hr/mg protein
Oxidative Conversion Rates [15, 19]: 2.5 μmole/hr/mg protein

CCCC [Butane]
Conversion Rate to Ketone [1]: 3 μmoles/hr/mg Protein
Conversion Rate to Ketone [2]: 1 μmoles/hr/mg Protein
Conversion Rate [3]: 0.80 μmoles/hr/^5 mg. protein
Conversion Rate to Ketone [3]: 2.0 μmoles/hr/mg Protein
Conversion Rate to Ketone [4]: 2 μmoles/hr/mg Protein
Conversion Rate to 1-Butanol ([4]; pH 7): 0.4 μmoles/hr./mg./protein
Conversion Rate to 2-Butanol ([4]; pH 7): 0.5 μmoles/hr./mg./protein
Conversion Rate to 2-Butanone ([4]; pH 7): 0.2 μmoles/hr./mg./protein
Conversion Rate to n-butanol ([4]; pH 7): 0.2 μmoles/hr./mg./protein
Conversion Rate [5]: 1.2 μmoles/hr/^5 mg. protein
Conversion Rate to Ketone [5]: 1.0 μmoles/hr/mg Protein
Conversion Rate [13]: 1.2 μmoles/hr/^5 mg. protein
Conversion Rate to 1-Butanol ([16]; 3° C.): 0.3 μmoles/hr./mg./protein
Conversion Rate to 2-Butanol ([16]; 3° C.): 0.4 μmoles/hr./mg./protein
Conversion Rate to 2-Butanone ([16]; 3° C.): 0.1 μmoles/hr./mg./protein
Conversion Rate to n-butanol ([16]; 3° C.): 0.1 μmoles/hr./mg./protein

C [Methane]
Oxidative Conversion Rates [1]: 1.5
Oxidative Conversion Rates [2]: 0.8
Oxidative Conversion Rates [3]: 0.7
Oxidative Conversion Rates [17]: 0.42 μmole/hr/mg protein
Oxidative Conversion Rates [4]: 2.5
Conversion Rate to Methanol ([4]; pH 7): 2.5 μmoles/hr./mg./protein
Oxidative Conversion Rates [8]: 2.1
Oxidative Conversion Rates [9]: 1.5
Oxidative Conversion Rates [10]: 2.0
Oxidative Conversion Rates [11]: 0.72
Oxidative Conversion Rates [5]: 1.2
Oxidative Conversion Rates [12]: 0.6
Oxidative Conversion Rates [13]: 1.1
Oxidative Conversion Rates [6]: 0.9 μmole/hr/mg protein
Oxidative Conversion Rates [7]: 2.3
Oxidative Conversion Rates [14]: 2.3
Oxidative Conversion Rates [15]: 1.0
Conversion Rate to Methanol ([16]; 3° C.): 1.5 μmoles/hr./mg./protein

CCC [Propane]
Conversion Rate to Ketone [1, 20]: 5.0 μmoles/hr/mg Protein
Conversion Rate to Ketone [2, 20]: 2.0 μmoles/hr/mg Protein
Conversion Rate [3, 21]: 1.4 μmoles/hr/^5 mg. protein
Conversion Rate to Ketone [3, 20]: 3.0 μmoles/hr/mg Protein
Conversion Rate to Ketone ([17]; methane-grown cells, propane to acetone): 3.5 μmoles/hr/mg Protein
Conversion Rate to 2-Propanol [4, 22]: 0.7 μmoles/hr./mg./protein
Conversion Rate to Acetone [4, 22]: 0.3 μmoles/hr./mg./protein
Conversion Rate to 1-Propanol [4, 23]: 0.5 μmoles/hr./mg./protein
Conversion Rate to Propanol [4, 23]: 0.2 μmoles/hr./mg./protein
Conversion Rate to Ketone [4, 20]: 4.0 μmoles/hr/mg Protein
Conversion Rate [5, 21]: 2.1 μmoles/hr/^5 mg. protein
Conversion Rate to Ketone [5, 20]: 1.6 μmoles/hr/mg Protein
Conversion Rate [13, 21]: 1.6 μmoles/hr/^5 mg. protein
Conversion Rate to 2-Propanol ([16]; 3° C.): 0.6 μmoles/hr./mg./protein
Conversion Rate to Acetone ([16]; 3° C.): 0.2 μmoles/hr./mg./protein
Conversion Rate to Propanol ([16]; 3° C.): 0.1 μmoles/hr./mg./protein
Conversion Rate to 1-Propanol ([16]; 30° C.): 0.4 μmoles/hr./mg./protein

C=CC [Propylene]
conversion rate propylene to propylene oxide [1, 24]: 0.27 μ mole/2 hr./mg protein
Oxidative Conversion Rates [1, 19]: 1.5 μmole/hr/mg protein
Oxidative Conversion Rates [2, 19]: 1.2 μmole/hr/mg protein
Oxidative Conversion Rates [3, 19]: 2.5 μmole/hr/mg protein
Oxidative Conversion Rates [17]: 1.9 μmole/hr/mg protein
conversion rate propylene to propylene oxide [4, 24]: 7.88 μ mole/2 hr./mg. protein
Oxidative Conversion Rates [4, 19]: 5.5 μmole/hr/mg protein
Oxidative Conversion Rates [8, 19]: 1.2 μmole/hr/mg protein
Oxidative Conversion Rates [9, 19]: 2.5 μmole/hr/mg protein
Oxidative Conversion Rates [10, 19]: 2.2 μmole/hr/mg protein
Oxidative Conversion Rates [11, 19]: 2.5 μmole/hr/mg protein
Oxidative Conversion Rates [5, 19]: 4.5 μmole/hr/mg protein
Oxidative Conversion Rates [12, 19]: 1.6 μmole/hr/mg protein
Oxidative Conversion Rates [13, 19]: 1.0 μmole/hr/mg protein
Oxidative Conversion Rates [6]: 1.9 μmole/hr/mg protein
Oxidative Conversion Rates [7, 19]: 3.8 μmole/hr/mg protein
Oxidative Conversion Rates [14, 19]: 1.8 μmole/hr/mg protein
Oxidative Conversion Rates [15, 19]: 3.2 μmole/hr/mg protein
